According to ChEMBL document CHEMBL1130186, “Potent alpha 4 beta 1 peptide antagonists as potential anti-inflammatory agents” (J Med Chem, 1997):
*1 amine or outer side, *2 acyl side, *3 side chain or, on linkers, in order; H or OH if unused. Where a SMILES comes first, the peptide text is derived from it. Bridges are numbered along the chain shown (N, C = ends). [ ]: non-standard residue; d: D form. The star is where a group is joined. ξ: configuration not given here. X7 = O=C([C@H]1[C@@H](c2ccc(O)cc2)CCN1[*:1])[*:2]; X3 = O=C([C@H]1[C@H](c2ccc(O)cc2)CCN1[*:1])[*:2]; Fluorene(1-CO) = O=C(c1cccc2c1Cc1ccccc1-2)*; Phenylacetyl(4-OMe) = COc1ccc(CC(=O)*)cc1; Tyr(3-F) = N[C@@H](Cc1ccc(O)c(F)c1)C(=O)O; Oic(3aξ,7aξ) = O=C(O)[C@@H]1CC2CCCCC2N1; Fmoc = O=C(OCC1c2ccccc2-c2ccccc21)*; X1 = O=C(C(Cc1ccc(O)cc1)c1ccccc1)*; Hyp = O=C(O)[C@@H]1C[C@@H](O)CN1; Cha = N[C@@H](CC1CCCCC1)C(=O)O; Aic = NC1(C(=O)O)Cc2ccccc2C1; Chg = N[C@H](C(=O)O)C1CCCCC1; Phg = N[C@H](C(=O)O)c1ccccc1; X2 = O=C(c1cccc2cc(O)ccc12)*; 3Amb = NCc1cccc(C(=O)O)c1; 4Amb = NCc1ccc(C(=O)O)cc1; Pip = O=C(O)[C@@H]1CCCCN1; 3Abz = Nc1cccc(C(=O)O)c1; 4Abz = Nc1ccc(C(=O)O)cc1; 2Abz = Nc1ccccc1C(=O)O; Inp = O=C(O)C1CCNCC1; Bz = O=C(c1ccccc1)*; Ava = NCCCCC(=O)O; Sar = CNCC(=O)O

Experiments:
Integrin alpha-4/beta-1 [1] = target: T1, Integrin alpha-4/beta-1 (Homo sapiens, UniProt P05556+P13612); test: Inhibition of purified alpha-4 beta-1 binding to VCAM-1 was determined in an ELISA assay.; type: protein-complex assay
Integrin alpha-4/beta-1 [2] = target: T1, Integrin alpha-4/beta-1; test: Inhibition of fluorescently labeled alpha4-beta1 positive Ramos cells binding to immobilized VCAM-1.; type: cell-based

T1 sequence (P05556 whole entry): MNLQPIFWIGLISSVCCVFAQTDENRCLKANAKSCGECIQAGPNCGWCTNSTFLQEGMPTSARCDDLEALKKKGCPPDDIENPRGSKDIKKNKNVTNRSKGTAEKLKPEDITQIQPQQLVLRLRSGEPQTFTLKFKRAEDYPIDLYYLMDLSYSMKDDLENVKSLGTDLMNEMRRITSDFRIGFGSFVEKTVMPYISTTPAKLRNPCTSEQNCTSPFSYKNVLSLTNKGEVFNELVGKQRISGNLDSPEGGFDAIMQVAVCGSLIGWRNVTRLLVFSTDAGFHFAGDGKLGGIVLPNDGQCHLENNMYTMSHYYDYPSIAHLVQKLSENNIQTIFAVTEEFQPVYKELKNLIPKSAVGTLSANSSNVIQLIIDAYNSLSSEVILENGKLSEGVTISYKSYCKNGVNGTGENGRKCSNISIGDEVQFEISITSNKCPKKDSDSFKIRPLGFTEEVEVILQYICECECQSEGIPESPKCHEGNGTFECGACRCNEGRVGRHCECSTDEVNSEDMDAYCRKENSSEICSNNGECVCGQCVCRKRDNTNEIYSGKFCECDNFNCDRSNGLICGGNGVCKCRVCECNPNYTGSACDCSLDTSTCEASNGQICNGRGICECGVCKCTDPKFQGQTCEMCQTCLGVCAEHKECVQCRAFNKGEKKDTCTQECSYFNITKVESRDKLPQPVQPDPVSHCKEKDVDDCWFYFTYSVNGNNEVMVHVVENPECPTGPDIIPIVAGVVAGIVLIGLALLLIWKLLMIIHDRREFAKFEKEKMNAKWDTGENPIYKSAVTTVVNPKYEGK
T1 sequence (P13612 whole entry): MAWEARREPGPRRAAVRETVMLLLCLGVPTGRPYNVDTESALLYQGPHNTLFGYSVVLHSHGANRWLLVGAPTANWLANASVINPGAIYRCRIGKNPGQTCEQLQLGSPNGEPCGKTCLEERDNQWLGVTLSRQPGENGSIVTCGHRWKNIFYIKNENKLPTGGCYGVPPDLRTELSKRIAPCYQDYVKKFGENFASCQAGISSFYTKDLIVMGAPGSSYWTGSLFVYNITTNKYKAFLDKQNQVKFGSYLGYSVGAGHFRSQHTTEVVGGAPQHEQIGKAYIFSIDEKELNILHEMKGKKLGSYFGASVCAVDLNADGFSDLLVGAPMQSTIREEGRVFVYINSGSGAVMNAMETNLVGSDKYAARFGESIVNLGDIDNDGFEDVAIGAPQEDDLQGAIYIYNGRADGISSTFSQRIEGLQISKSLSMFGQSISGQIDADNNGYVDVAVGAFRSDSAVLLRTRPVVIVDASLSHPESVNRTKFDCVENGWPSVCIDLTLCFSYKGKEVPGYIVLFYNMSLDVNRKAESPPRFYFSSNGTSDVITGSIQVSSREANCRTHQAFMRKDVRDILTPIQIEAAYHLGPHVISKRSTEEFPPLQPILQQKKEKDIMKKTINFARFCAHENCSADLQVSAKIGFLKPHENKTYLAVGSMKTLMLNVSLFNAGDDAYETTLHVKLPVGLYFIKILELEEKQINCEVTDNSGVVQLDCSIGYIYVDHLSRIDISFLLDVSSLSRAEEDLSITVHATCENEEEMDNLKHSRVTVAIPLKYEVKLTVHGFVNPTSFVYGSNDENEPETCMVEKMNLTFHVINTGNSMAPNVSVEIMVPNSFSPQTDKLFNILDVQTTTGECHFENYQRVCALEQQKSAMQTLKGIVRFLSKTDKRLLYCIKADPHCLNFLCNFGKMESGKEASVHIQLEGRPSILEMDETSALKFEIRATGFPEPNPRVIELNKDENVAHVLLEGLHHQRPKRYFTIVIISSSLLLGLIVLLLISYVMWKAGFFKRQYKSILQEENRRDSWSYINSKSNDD

Row | Structure (SMILES) | IC50 (Integrin alpha-4/beta-1 [1]) [nM] | IC50 (Integrin alpha-4/beta-1 [2]) [nM]
1 | C[C@H](NC(=O)[C@@H](N)Cc1ccc(O)cc1)C(=O)N[C@H]1CSSC[C@@H](C(=O)O)NC(=O)[C@@H]2CCCN2C(=O)[C@H](CC(=O)O)NC1=O (H-YACDPC-OH; disulfide 3-6) | 210 | 5000
2 | N=C(N)NCCC[C@H](NC(=O)OCC1c2ccccc2-c2ccccc21)C(=O)N[C@H]1CSSC[C@@H](C(=O)O)NC(=O)[C@@H]2CCCN2C(=O)[C@H](CC(=O)O)NC1=O (Fmoc-RCDPC-OH; disulfide 2-5) | 130 | 15000
3 | N[C@@H](Cc1ccc(O)cc1)C(=O)N[C@H]1CSSC[C@@H](C(=O)O)NC(=O)c2ccccc2NC1=O (H-YC[2Abz]C-OH; disulfide 2-4) | 1300 | 80000
4 | NC(N)=NCCC[C@H](NC(=O)[C@@H](N)Cc1ccc(O)cc1)C(=O)N[C@H]1CSSC[C@@H](C(=O)O)NC(=O)[C@@H]2CCCN2C(=O)[C@H](CC(=O)O)NC1=O (H-YRCDPC-OH; disulfide 3-6) | 110 | 6000
5 | N[C@@H](Cc1ccc(O)cc1)C(=O)N[C@H]1CSSC[C@@H](C(=O)O)NC(=O)c2ccc(cc2)CNC1=O (H-YC[4Amb]C-OH; disulfide 2-4) | 420 | 15000
6 | N=C(N)NCCC[C@H](NC(=O)[C@@H](N)Cc1c[nH]c2ccccc12)C(=O)N[C@H]1CSSC[C@@H](C(=O)O)NC(=O)[C@@H]2CCCN2C(=O)[C@H](CC(=O)O)NC1=O (H-WRCDPC-OH; disulfide 3-6) | 1200 | 100000
7 | NC(=O)[C@@H]1CSSC[C@H](NC(=O)[C@@H](N)Cc2ccc(O)cc2)C(=O)Nc2cccc(c2)C(=O)N1 (H-YC[3Abz]C-NH2; disulfide 2-4) | 12000 | 
8 | C[C@@H]1NC(=O)[C@@H](NC(=O)[C@@H](N)Cc2ccc(O)cc2)CSSC[C@@H](C(=O)O)NC(=O)[C@@H]2CCCN2C1=O (H-YCAPC-OH; disulfide 2-5) | 5 | 120
9 | N[C@@H](Cc1ccc(O)cc1)C(=O)N[C@H]1CSSC[C@@H](C(=O)O)NC(=O)CCCCNC1=O (H-YC[Ava]C-OH; disulfide 2-4) | 410 | 17000
10 | CC(C)C[C@@H]1NC(=O)[C@H](C)NC(=O)[C@@H](NC(=O)[C@@H](N)Cc2ccc(O)cc2)CSSC[C@@H](C(=O)O)NC1=O (H-YCALC-OH; disulfide 2-5) | 34 | 10500
11 | C[C@@H]1NC(=O)[C@@H](NC(=O)[C@@H](N)Cc2ccc(O)cc2)CSSC[C@@H](C(=O)O)NC(=O)[C@@H]2C[C@@H](O)CN2C1=O (H-YCA[Hyp]C-OH; disulfide 2-5) | 5 | 
12 | N[C@@H](Cc1ccc(O)cc1)C(=O)N[C@H]1CSSC[C@@H](C(=O)O)NC(=O)CNC1=O (H-YCGC-OH; disulfide 2-4) | 5800 | 250000
13 | C[C@@H]1NC(=O)[C@@H](NC(=O)[C@@H](N)Cc2ccc(O)cc2)CSSC[C@@H](C(=O)O)NC(=O)[C@H](C2CCCCC2)NC1=O (H-YCA[Chg]C-OH; disulfide 2-5) | 230 | 
14 | N[C@@H](Cc1ccc(O)cc1)C(=O)N[C@H]1CSSC[C@@H](C(=O)O)NC(=O)[C@H](C2CCCCC2)NC1=O (H-YC[Chg]C-OH; disulfide 2-4) | 115000 | 
15 | C[C@@H]1NC(=O)[C@@H](NC(=O)[C@@H](N)Cc2ccc(O)cc2)CSSC[C@@H](C(=O)O)NC(=O)C2(Cc3ccccc3C2)NC1=O (H-YCA[Aic]C-OH; disulfide 2-5) | 36000 | 
16 | CC(=O)N[C@@H](Cc1ccc(O)cc1)C(=O)N[C@H]1CSSC[C@@H](C(N)=O)NC(=O)[C@@H]2CCCN2C(=O)[C@H](C)NC1=O (Ac-YCAPC-NH2; disulfide 2-5) | 320 | 
17 | O=C(N[C@H]1CSSC[C@@H](C(=O)O)NC(=O)[C@@H]2CCCN2C(=O)[C@H](CO)NC1=O)C(Cc1ccc(O)cc1)c1ccccc1 (stereo partly specified) (X1-CSPC-OH; disulfide 1-4) | 13 | 2000
18 | CC(=O)N[C@@H](Cc1ccc(O)cc1)C(=O)N[C@H]1CSSC[C@@H](C(=O)O)NC(=O)[C@H](c2ccccc2)NC(=O)[C@H](C)NC1=O (Ac-YCA[Phg]C-OH; disulfide 2-5) | 76 | 33000
19 | CC(=O)N[C@@H](Cc1ccc(O)cc1)C(=O)N[C@H]1CSSC[C@@H](C(=O)O)NC(=O)CNC(=O)[C@H](C)NC1=O (Ac-YCAGC-OH; disulfide 2-5) | 22000 | 
20 | N=C(N)NCCC[C@H](NC(=O)[C@@H](N)Cc1ccc(O)cc1)C(=O)N[C@H]1CSSC[C@@H](C(=O)O)NC(=O)[C@@H]2CCCN2C(=O)[C@H](CC(N)=O)NC1=O (H-YRCNPC-OH; disulfide 3-6) | 40 | 7000
21 | COc1ccc(CC(=O)N[C@H]2CSSC[C@@H](C(=O)O)NC(=O)[C@@H]3CCCN3C(=O)[C@H](CO)NC2=O)cc1 ({Phenylacetyl(4-OMe)}-CSPC-OH; disulfide 1-4) | 250 | 3000

Row | Structure (SMILES) | IC50 (Integrin alpha-4/beta-1 [1]) [nM] | IC50 (Integrin alpha-4/beta-1 [2]) [nM]
22 | C[C@@H]1NC(=O)[C@@H](NC(=O)[C@@H](N)Cc2ccc(O)cc2)CSSC[C@@H](C(=O)O)NC(=O)[C@@H]2CC3CCCCC3N2C1=O (stereo partly specified) (H-YCA[Oic(3aξ,7aξ)]C-OH; disulfide 2-5) | 20 | 4700
23 | C[C@@H]1NC(=O)[C@@H](NC(=O)[C@H](CCCN=C(N)N)NC(=O)[C@@H](N)Cc2ccc(O)cc2)CSSC[C@@H](C(=O)O)NC(=O)[C@@H]2CCCN2C1=O (H-YRCAPC-OH; disulfide 3-6) | 60 | 8000
24 | C[C@@H]1NC(=O)[C@@H]2CCCN2C(=O)[C@@H](NC(=O)[C@@H](N)Cc2ccc(O)cc2)CSSC[C@@H](C(=O)O)NC1=O (H-YCPAC-OH; disulfide 2-5) | 230 | 14000
25 | CC(=O)N1CC[C@@H](c2ccc(O)cc2)[C@@H]1C(=O)N[C@H]1CSSC[C@@H](C(=O)O)NC(=O)[C@@H]2CCCN2C(=O)[C@H](CO)NC1=O (Ac-[X3]CSPC-OH; disulfide 2-5) | 0.5 | 8
26 | NCCCC[C@H](NC(=O)[C@@H](N)Cc1ccc(O)cc1)C(=O)N[C@H]1CSSC[C@@H](C(=O)O)NC(=O)[C@@H]2CCCN2C(=O)[C@H](CC(=O)O)NC1=O (H-YKCDPC-OH; disulfide 3-6) | 150 | 5000
27 | N[C@@H](Cc1ccc(O)cc1)C(=O)N[C@H]1CSSC[C@@H](C(=O)O)NC(=O)C2CCN(CC2)C1=O (H-YC[Inp]C-OH; disulfide 2-4) | 31 | 1500
28 | N[C@@H](Cc1ccc(O)cc1)C(=O)N[C@H]1CSSC[C@@H](C(=O)O)NC(=O)c2ccc(cc2)NC1=O (H-YC[4Abz]C-OH; disulfide 2-4) | 160 | 4200
29 | CC(=O)N[C@@H](Cc1ccc(O)cc1)C(=O)N[C@H]1CSSC[C@@H](C(=O)O)NC(=O)[C@@H]2CCCCN2C(=O)[C@H](C)NC1=O (Ac-YCA[Pip]C-OH; disulfide 2-5) | 1 | 20
30 | CC(=O)N1CC[C@H](c2ccc(O)cc2)[C@@H]1C(=O)N[C@H]1CSSC[C@@H](C(=O)O)NC(=O)[C@@H]2CCCN2C(=O)[C@H](CO)NC1=O (Ac-[X7]CSPC-OH; disulfide 2-5) | 4 | 
31 | N[C@H](Cc1ccc(O)cc1)C(=O)N[C@H]1CSSC[C@@H](C(=O)O)NC(=O)[C@@H]2CCCN2C(=O)[C@H](CO)NC1=O | 890 | 126000
32 | N[C@@H](Cc1ccc(O)c(F)c1)C(=O)N[C@H]1CSSC[C@@H](C(=O)O)NC(=O)[C@@H]2CCCN2C(=O)[C@H](CO)NC1=O (H-[Tyr(3-F)]CSPC-OH; disulfide 2-5) | 8 | 500
33 | O=C(N[C@H]1CSSC[C@@H](C(=O)O)NC(=O)[C@@H]2CCCN2C(=O)[C@H](CO)NC1=O)c1cccc2cc(O)ccc12 (X2-CSPC-OH; disulfide 1-4) | 1100 | 40000
34 | N[C@@H](Cc1ccc(O)cc1)C(=O)N[C@H]1CSSC[C@@H](C(=O)O)NC(=O)c2cccc(c2)CNC1=O (H-YC[3Amb]C-OH; disulfide 2-4) | 6000 | 210000
35 | NC(N)=NCCC[C@H](NC(=O)[C@@H](N)Cc1ccccc1)C(=O)N[C@H]1CSSC[C@@H](C(=O)O)NC(=O)[C@@H]2CCCN2C(=O)[C@H](CC(=O)O)NC1=O (H-FRCDPC-OH; disulfide 3-6) | 2100 | 100000
36 | O=C(N[C@H]1CSSC[C@@H](C(=O)O)NC(=O)[C@@H]2CCCN2C(=O)[C@H](CO)NC1=O)c1cccc2c1Cc1ccccc1-2 ({Fluorene(1-CO)}-CSPC-OH; disulfide 1-4) | 140 | 1500
37 | C[C@@H]1NC(=O)[C@@H](NC(=O)[C@@H](N)Cc2ccc(O)cc2)CSSC[C@@H](C(=O)O)NC1=O (H-YCAC-OH; disulfide 2-4) | 9400 | 350000
38 | O=C(N[C@H]1CSSC[C@@H](C(=O)O)NC(=O)[C@@H]2CCCN2C(=O)[C@H](CO)NC1=O)c1ccccc1 (Bz-CSPC-OH; disulfide 1-4) | 134 | 1900
39 | NC(=O)[C@@H]1CSSC[C@H](NC(=O)[C@@H](N)CCCN=C(N)N)C(=O)N[C@@H](CC(=O)O)C(=O)N2CCC[C@H]2C(=O)N1 (H-RCDPC-NH2; disulfide 2-5) | 50000 | 
40 | CC(=O)N[C@@H](Cc1ccc(O)cc1)C(=O)N[C@H]1CSSC[C@@H](C(=O)O)NC(=O)CN(C)C(=O)[C@H](C)NC1=O (Ac-YCA[Sar]C-OH; disulfide 2-5) | 710 | 
41 | N[C@@H](Cc1ccc(O)cc1)C(=O)N[C@H]1CSSC[C@@H](C(=O)O)NC(=O)[C@H](CC2CCCCC2)NC1=O (H-YC[Cha]C-OH; disulfide 2-4) | 18000 | 
